According to patent publication US7074819B2, “Benzopyran or thiobenzopyran derivatives” (Chugai Seiyaku Kabushiki Kaisha, priority 1998, dated 2006):
Like-named read-outs stand apart in the source and are kept apart here.

What was measured:
MCF-7 cell lines (ATCC) = experiment: Cell growth inhibiting activity (MTT, with 0.1 nM estradiol, 7 days); format: cell-based; details: MCF-7 cells, read-out: IC50 value for inhibiting cell growth of 50%
Protocol: In this experiment, the cell growth inhibiting activity was determined by using the compounds of Examples 1, 2, 3, 5, 22, 127 and 128 as the test compound and the known anti-estrogenic compound […] having the following structure (see, EP0124369 B1) as the control compound, according to the method described hereinafter.
One day before drug administration, incubated MCF-7 cells were plated in 96-well plate in the concentration of 5×10^3 cells per well. After the 96-well plate was incubated for one day, 0.1 nM of estradiol and the test compound in the given concentration were added to each well. The plate was incubated for 7 days at 37° C. and then MTT solution (Sigma) was added to each well in the amount of 15 μl and allowed to react for 2 hours at 37° C. After the reaction was completed, the solubilizing/stopping solution (constitution: SDS, acetic acid, N,N-dimethylformamide) was added to each well in the amount of 100 μl. Then, the absorption for each well at 570 nm was measured by means of a plate reader. IC50 value for inhibiting cell growth of 50% was calculated from the results as measured and described in the following Table 2.

ovariectomized mice [1] = experiment: Anti-estrogenic activity (subcutaneous administration): inhibition of estradiol-stimulated uterine weight increase; format: in vivo, mice (ICR); details: s.c., 3 days; for Inhibition (%) of the increase of uterine weight by estradiol: 30 μg/mouse in peanut oil, ovariectomized ICR mice given 17β-estradiol-benzoate 0.1 μg/day; for inhibition of the increase of uterine weight by estradiol (in words): 30 μg/mouse, ovariectomized mice given 17β-estradiol
Protocol: Anti-estrogenic activity of the test compound by subcutaneous administration was determined according to the method described hereinafter. In this experiment, the compounds of Examples 1, 2, 3, 4, 5, 22, 127 and 128 were used as the test compound and the known anti-estrogenic compound ZM189154 was used as the control compound as in Experiment 1.
In this experiment, the test compound or the control compound was dissolved in peanut oil (Sigma) and injected subcutaneously for 3 days, once a day. After 24 hours from the last injection, the test animal was sacrificed and uterus was removed and weighed.

ovariectomized mice [2] = experiment: Anti-estrogenic activity (oral administration): inhibition of estradiol-stimulated uterine weight increase; format: in vivo; details: p.o., 3 days, 10 mg/kg in 5% arabic gum solution; ovariectomized ICR mice given 17β-estradiol-benzoate 0.1 μg/day
Protocol: Oral anti-estrogenic activity in vivo of the test compound was determined according to the method described hereinafter. In this experiment, the compound of Example 3, 22, 127 and 128 were used as the test compound and the known anti-estrogenic compound ZM189154 was used as the control compound as in Experiment 2.
In this experiment, the test compound or the control compound was suspended in 5% arabic gum solution and orally administered for 3 days, once a day. After 24 hours from the last administration, the test animal was sacrificed and uterus was removed and weighed.

[3] = 7 days at 37° C., absorption at 570 nm

7-hydroxy-3-(4-hydroxyphenyl)-3-methyl-4-{9-[4-(4,4,5,5,5-pentafluoropentyl)piperazinyl]nonyl}chroman [Example 1]
IC50 (MCF-7 cell lines (ATCC); [3]): 60.4 nM | Inhibition (%) of the increase of uterine weight by estradiol (ovariectomized mice [1]): 27.5% | inhibition of the increase of uterine weight by estradiol (in words) (ovariectomized mice [1]): substantially inhibit

CCCCNC(=N)CCCCCCCCCC[C@H]1c2ccc(O)cc2OC[C@@]1(C)c1ccc(O)cc1 (racemic) [Compound I of Example 2, (3RS,4RS)-7-hydroxy-4-[(11-imino-11-N-butylamino)undecyl]-3-(4-hydroxyphenyl)-3-methylchroman]
IC50 (MCF-7 cell lines (ATCC); [3]): 67.5 nM | Inhibition (%) of the increase of uterine weight by estradiol (ovariectomized mice [1]): 30.8%

CCCCN=C(CCCCCCCCCC[C@H]1c2ccc(O)cc2OC[C@@]1(C)c1ccc(O)cc1)NCCCC (racemic) [Compound II of Example 2, (3RS,4RS)-7-hydroxy-4-[(11-N-butylimino-11-N-butylamino)undecyl]-3-(4-hydroxyphenyl)-3-methylchroman]
IC50 (MCF-7 cell lines (ATCC); [3]): 1000 nM | Inhibition (%) of the increase of uterine weight by estradiol (ovariectomized mice [1]): −9.3%

CC(C)(C)c1cc(CN2CCN(CCOc3ccc([C@@H]4c5ccc(O)cc5OC[C@@]4(C)c4ccc(O)cc4)cc3)CC2)cc(C(C)(C)C)c1 (racemic) [Example 3, (3RS,4SR)-7-hydroxy-4-{4-{2-{4-{[3,5-bis(t-butyl)phenyl]methyl}piperazinyl}ethoxy}phenyl}-3-(4-hydroxyphenyl)-3-methylchroman]
IC50 (MCF-7 cell lines (ATCC); [3]): 54.5 nM | Inhibition (%) of the increase of uterine weight by estradiol (ovariectomized mice [1]): 11.7% | Inhibition (%) of the increase of uterine weight by estradiol (ovariectomized mice [2]): 0.6%

CN(CCCCC[C@H]1c2ccc(O)cc2OC[C@@]1(C)c1ccc(O)cc1)CCCSCCCC(F)(F)C(F)(F)F (racemic) [Example 4, (3RS,4RS)-7-hydroxy-3-(4-hydroxyphenyl)-4-{5-[N-methyl-N-3-(4,4,5,5,5-pentafluoropentylthio)propylamino]pentyl}-3-methylchroman]
Inhibition (%) of the increase of uterine weight by estradiol (ovariectomized mice [1]): 26.4%

[O-][S+](CCCC(F)(F)C(F)(F)F)CCOCCOc1ccc(C2=C(c3ccc(O)cc3)COc3cc(O)ccc32)cc1 (stereo not drawn) [Example 5, 4-{4-{2-[2-(4,4,5,5,5-pentafluoropentylsulfinyl)ethoxy]ethoxy}phenyl}-7-hydroxy-3-(4-hydroxyphenyl)-2H-chromene]
IC50 (MCF-7 cell lines (ATCC); Homo sapiens, MCF7, 168 h, 7 days at 37° C., absorption at 570 nm): 387 nM | Inhibition (%) of the increase of uterine weight by estradiol (ovariectomized mice [1]): 9.8%

CC1(c2ccc(O)cc2)CSc2cc(O)ccc2C1CCCCCCCCC(CCCC(F)(F)C(F)(F)F)C(=O)O (stereo not drawn) [Example 22, (3′RS,4′RS)-10-[7-hydroxy-3-(4-hydroxyphenyl)-3-methyltbiochroman-4-yl]-2-(4,4,5,5,5-pentafluoropentyl)decanoic acid]
IC50 (MCF-7 cell lines (ATCC); [3]): 850 nM | Inhibition (%) of the increase of uterine weight by estradiol (ovariectomized mice [1]): 51.0% | inhibition of the increase of uterine weight by estradiol (in words) (ovariectomized mice [1]): substantially inhibit | Inhibition (%) of the increase of uterine weight by estradiol (ovariectomized mice [2]): 81.3%

C[C@]1(c2ccc(O)cc2)CCc2cc(O)ccc2C1CCCCCCCCC[S+]([O-])CCCC(F)(F)C(F)(F)F (stereo partly drawn) [ZM189154, reference compound]
IC50 (MCF-7 cell lines (ATCC); Homo sapiens, MCF7, 168 h, 7 days, control compound, (cis)): 9.2 nM | IC50 (MCF-7 cell lines (ATCC); Homo sapiens, MCF7, 168 h, 7 days, control compound, (trans)): 77 nM | Inhibition (%) of the increase of uterine weight by estradiol (ovariectomized mice [1]): 73.8% | Inhibition (%) of the increase of uterine weight by estradiol (ovariectomized mice [2]): 41.7%
